Test results reported in the supplement of paper PMC6045584.
± gives the standard deviation of the averaged measurements.

Key:
TIOGUANINE [1] = compound: T1, Nc1nc2[nH]cnc2c(=S)[nH]1 [TIOGUANINE]; experiment: surviving fraction relative to DMSO-only wells; higher = less growth inhibition; settings: exposure time: 5 days
Method in brief: (§1)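 Tumour cell lines in log phase were plated in 384-well plates at 250–500 cells per well, then, after 24 hours, exposed continuously for five days to inhibitors at 0.5, 1, 5, 10, 50, 100, 500 and 1000 nM. Viability came from CellTiter-Glo luminescence, and surviving fraction is that signal normalised to the median of DMSO-only wells. Plates were read after 10 minutes at room temperature, and each line, screened three times, was kept only when replicate Pearson r was >0.7 and median Z' was >0.3.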

SAPACITABINE [2] = compound: T2, CCCCCCCCCCCCCCCC(=O)Nc1ccn([C@@H]2O[C@H](CO)[C@@H](O)[C@@H]2C#N)c(=O)n1 [SAPACITABINE]; experiment: as above; settings: exposure time: 5 days
Method in brief: as §1

BI-2536 [3] = compound: T3, CC[C@@H]1C(=O)N(C)c2cnc(Nc3ccc(C(=O)NC4CCN(C)CC4)cc3OC)nc2N1C1CCCC1 [BI-2536]; experiment: as above; settings: exposure time: 5 days
Method in brief: as §1

AFATINIB [4] = compound: T4, CN(C)C/C=C/C(=O)Nc1cc2c(Nc3ccc(F)c(Cl)c3)ncnc2cc1O[C@H]1CCOC1 [AFATINIB]; experiment: as above; settings: exposure time: 5 days
Method in brief: as §1

SNX-5422 [5] = compound: T5, CC1(C)CC(=O)c2c(C(F)(F)F)nn(-c3ccc(C(N)=O)c(N[C@H]4CC[C@H](OC(=O)CN)CC4)c3)c2C1 [SNX-5422]; experiment: as above; settings: exposure time: 5 days
Method in brief: as §1

CANERTINIB [6] = compound: T6, C=CC(=O)Nc1cc2c(Nc3ccc(F)c(Cl)c3)ncnc2cc1OCCCN1CCOCC1 [CANERTINIB]; experiment: as above; settings: exposure time: 5 days
Method in brief: as §1

[7] = compound: Cn1cc(C2=Nc3cc(NC(=O)C(N)C4CCCCC4)cc4c3C2=CNNC4=O)cn1; experiment: as above; settings: exposure time: 5 days
Method in brief: as §1

MDV3100 [8] = compound: T7, CNC(=O)c1ccc(N2C(=S)N(c3ccc(C#N)c(C(F)(F)F)c3)C(=O)C2(C)C)cc1F [MDV3100]; experiment: as above; settings: exposure time: 5 days
Method in brief: as §1

TIOGUANINE [9] = compound: T1, TIOGUANINE; experiment: area under dose-response curve of surviving fraction (unscaled, Aref=0) (surviving fraction x log10(nM)); higher = more resistant; settings: exposure time: 5 days; dose range 0.5-1000 nM
Method in brief: (§2)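 Each tumour cell line was screened three times in 384-well plates, receiving eight inhibitor concentrations from 0.5 to 1000 nM for five days. CellTiter-Glo luminescence gave viability, normalised to DMSO-only wells. Using the drc R package, surviving fractions were fitted with 3-parameter logistic dose-response curves, and the unscaled activity area over log10 dose (Aref = 0) was taken as the area under the curve.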

SAPACITABINE [10] = compound: T2, SAPACITABINE; experiment: as above; settings: exposure time: 5 days; dose range 0.5-1000 nM
Method in brief: as §2

BI-2536 [11] = compound: T3, BI-2536; experiment: as above; settings: exposure time: 5 days; dose range 0.5-1000 nM
Method in brief: as §2

AFATINIB [12] = compound: T4, AFATINIB; experiment: as above; settings: exposure time: 5 days; dose range 0.5-1000 nM
Method in brief: as §2

SNX-5422 [13] = compound: T5, SNX-5422; experiment: as above; settings: exposure time: 5 days; dose range 0.5-1000 nM
Method in brief: as §2

CANERTINIB [14] = compound: T6, CANERTINIB; experiment: as above; settings: exposure time: 5 days; dose range 0.5-1000 nM
Method in brief: as §2

[15] = compound: Cn1cc(C2=Nc3cc(NC(=O)C(N)C4CCCCC4)cc4c3C2=CNNC4=O)cn1; experiment: as above; settings: exposure time: 5 days; dose range 0.5-1000 nM
Method in brief: as §2

MDV3100 [16] = compound: T7, MDV3100; experiment: as above; settings: exposure time: 5 days; dose range 0.5-1000 nM
Method in brief: as §2

With CADOES1 SOFT TISSUE the surviving fraction (TIOGUANINE [1]; 0.5 nM) was 0.965 ± 0.12, the surviving fraction (TIOGUANINE [1]; 1 nM) was 0.922 ± 0.059 and the surviving fraction (TIOGUANINE [1]; 5 nM) was 0.93 ± 0.067. For the same test system, the surviving fraction (TIOGUANINE [1]; 10 nM) was 0.955 ± 0.045, the surviving fraction (TIOGUANINE [1]; 50 nM) was 0.989 ± 0.15 and the surviving fraction (TIOGUANINE [1]; 100 nM) was 0.952 ± 0.097. The surviving fraction (TIOGUANINE [1]; 500 nM) was 0.842 ± 0.095, the surviving fraction (TIOGUANINE [1]; 1000 nM) was 0.78 ± 0.048 and the surviving fraction (SAPACITABINE [2]; 0.5 nM) was 1.04 ± 0.053. The surviving fraction (SAPACITABINE [2]; 1 nM) was 1.03 ± 0.022, the surviving fraction (SAPACITABINE [2]; 5 nM) was 0.915 ± 0.11 and the surviving fraction (SAPACITABINE [2]; 10 nM) was 0.857 ± 0.074. For the same test system, the surviving fraction (SAPACITABINE [2]; 50 nM) was 0.553 ± 0.075, the surviving fraction (SAPACITABINE [2]; 100 nM) was 0.209 ± 0.066 and the surviving fraction (SAPACITABINE [2]; 500 nM) was 0.0497 ± 0.0072. It also gave a surviving fraction (SAPACITABINE [2]; 1000 nM) of 0.0437 ± 0.0035, a surviving fraction (BI-2536 [3]; 0.5 nM) of 1.04 ± 0.059 and a surviving fraction (BI-2536 [3]; 1 nM) of 0.939 ± 0.059. The surviving fraction (BI-2536 [3]; 5 nM) was 0.872 ± 0.093, the surviving fraction (BI-2536 [3]; 10 nM) was 0.792 ± 0.12 and the surviving fraction (BI-2536 [3]; 50 nM) was 0.193 ± 0.025. For the same test system, the surviving fraction (BI-2536 [3]; 100 nM) was 0.0877 ± 0.018, the surviving fraction (BI-2536 [3]; 500 nM) was 0.0517 ± 0.016 and the surviving fraction (BI-2536 [3]; 1000 nM) was 0.0513 ± 0.0051. For the same test system, the surviving fraction (AFATINIB [4]; 0.5 nM) was 0.833 ± 0.033, the surviving fraction (AFATINIB [4]; 1 nM) was 0.909 ± 0.063 and the surviving fraction (AFATINIB [4]; 5 nM) was 0.914 ± 0.0056. It also gave a surviving fraction (AFATINIB [4]; 10 nM) of 0.98 ± 0.011, a surviving fraction (AFATINIB [4]; 50 nM) of 0.837 ± 0.018 and a surviving fraction (AFATINIB [4]; 100 nM) of 0.997 ± 0.024. The surviving fraction (AFATINIB [4]; 500 nM) was 0.931 ± 0.11, the surviving fraction (AFATINIB [4]; 1000 nM) was 0.724 ± 0.051 and the surviving fraction (SNX-5422 [5]; 0.5 nM) was 0.975 ± 0.13. It also gave a surviving fraction (SNX-5422 [5]; 1 nM) of 0.967 ± 0.089, a surviving fraction (SNX-5422 [5]; 5 nM) of 1.07 ± 0.04 and a surviving fraction (SNX-5422 [5]; 10 nM) of 0.943 ± 0.11. The surviving fraction (SNX-5422 [5]; 50 nM) was 0.365 ± 0.064, the surviving fraction (SNX-5422 [5]; 100 nM) was 0.122 ± 0.02 and the surviving fraction (SNX-5422 [5]; 500 nM) was 0.061 ± 0.0056. It also gave a surviving fraction (SNX-5422 [5]; 1000 nM) of 0.0547 ± 0.00058, a surviving fraction (CANERTINIB [6]; 0.5 nM) of 1 ± 0.13 and a surviving fraction (CANERTINIB [6]; 1 nM) of 0.945 ± 0.049. The surviving fraction (CANERTINIB [6]; 5 nM) was 0.945 ± 0.038, the surviving fraction (CANERTINIB [6]; 10 nM) was 0.93 ± 0.075 and the surviving fraction (CANERTINIB [6]; 50 nM) was 0.918 ± 0.17. The surviving fraction (CANERTINIB [6]; 100 nM) was 0.926 ± 0.029, the surviving fraction (CANERTINIB [6]; 500 nM) was 0.738 ± 0.12 and the surviving fraction (CANERTINIB [6]; 1000 nM) was 0.595 ± 0.035. For the same test system, the surviving fraction ([7]; 0.5 nM) was 0.973 ± 0.13, the surviving fraction ([7]; 1 nM) was 0.933 ± 0.073 and the surviving fraction ([7]; 5 nM) was 0.868 ± 0.011. The surviving fraction ([7]; 10 nM) was 0.905 ± 0.051, the surviving fraction ([7]; 50 nM) was 0.88 ± 0.071 and the surviving fraction ([7]; 100 nM) was 0.988 ± 0.13. The surviving fraction ([7]; 500 nM) was 0.798 ± 0.068, the surviving fraction ([7]; 1000 nM) was 0.558 ± 0.027 and the surviving fraction (MDV3100 [8]; 0.5 nM) was 0.925 ± 0.1. It also gave a surviving fraction (MDV3100 [8]; 1 nM) of 0.911 ± 0.12, a surviving fraction (MDV3100 [8]; 5 nM) of 0.777 ± 0.092 and a surviving fraction (MDV3100 [8]; 10 nM) of 0.848 ± 0.07. It also gave a surviving fraction (MDV3100 [8]; 50 nM) of 0.871 ± 0.087, a surviving fraction (MDV3100 [8]; 100 nM) of 0.899 ± 0.093 and a surviving fraction (MDV3100 [8]; 500 nM) of 0.955 ± 0.068. For the same test system, the surviving fraction (MDV3100 [8]; 1000 nM) was 1.05 ± 0.02, the “area under dose-response curve” value (TIOGUANINE [9]) was 3.12 and the “area under dose-response curve” value (SAPACITABINE [10]) was 1.99. The “area under dose-response curve” value (BI-2536 [11]) was 1.66, the “area under dose-response curve” value (AFATINIB [12]) was 2.94 and the “area under dose-response curve” value (SNX-5422 [13]) was 1.95. The “area under dose-response curve” value (CANERTINIB [14]) was 3, the “area under dose-response curve” value [15] was 3.08 and the “area under dose-response curve” value (MDV3100 [16]) was 2.95.
